The results in this text go back to patent publication US11254668B2, “Pyrazolo[1,5-A]pyrazin-4-yl and related derivatives” (Pfizer Inc., priority 2017, dated 2022).

Common to all, as to format: biochemical
What all share (settings): JAK Caliper enzyme assay

Experiment [1] deals with JAK1 (Homo sapiens (Human), UniProt P23458). In words: JAK Caliper Enzyme Assay at 1 mM ATP, JAK1. The gist of the method:
(§1)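 Recombinant human kinase domains phosphorylated a fluorescent synthetic peptide at room temperature, with enzyme level and time tuned to 20% to 30% conversion; EDTA stop buffer ended reactions. Mobility-shift separation gave percent product from peak heights, normalised to DMSO and positive controls, and IC50s came from concentration–effect curves.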

For experiment [2], the target named is TYK2 (Homo sapiens (Human), UniProt P29597). As to the kind of experiment: JAK Caliper Enzyme Assay at 1 mM ATP, TYK2. Summed up: (§2)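 Human recombinant kinase domain + fluorescently labelled synthetic peptide, 1 mM ATP, RT; enzyme level/time set for 20–30% phosphorylation. EDTA stop. LabChip separation, peak-height % conversion, % effect vs plate controls.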

The target in experiment [3] is JAK3 (Homo sapiens (Human), UniProt P52333). As to the kind of experiment: JAK Caliper Enzyme Assay at 1 mM ATP, JAK3. Summed up:
as §1

Experiment [4] addresses JAK2 (Homo sapiens (Human), UniProt O60674). In words: JAK Caliper Enzyme Assay at 1 mM ATP, JAK2. Summed up: as §2

Chain of JAK3 (P52333 822-1111): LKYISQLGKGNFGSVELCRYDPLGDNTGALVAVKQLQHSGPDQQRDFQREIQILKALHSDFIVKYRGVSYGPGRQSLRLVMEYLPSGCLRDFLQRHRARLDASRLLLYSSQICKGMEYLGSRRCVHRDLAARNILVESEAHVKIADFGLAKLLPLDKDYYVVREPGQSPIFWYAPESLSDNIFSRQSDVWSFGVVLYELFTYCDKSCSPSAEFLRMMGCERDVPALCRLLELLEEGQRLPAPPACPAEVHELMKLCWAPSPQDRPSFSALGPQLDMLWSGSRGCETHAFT
Chain of TYK2 (P29597 897-1176): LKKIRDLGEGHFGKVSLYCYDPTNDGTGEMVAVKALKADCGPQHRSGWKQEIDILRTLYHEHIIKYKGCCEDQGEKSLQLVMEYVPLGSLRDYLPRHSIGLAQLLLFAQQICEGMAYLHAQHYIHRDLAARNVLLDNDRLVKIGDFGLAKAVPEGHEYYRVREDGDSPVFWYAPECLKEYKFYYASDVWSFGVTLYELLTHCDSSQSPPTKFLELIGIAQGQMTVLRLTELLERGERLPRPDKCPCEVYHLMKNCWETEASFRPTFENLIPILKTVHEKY
Chain of JAK2 (O60674 849-1124): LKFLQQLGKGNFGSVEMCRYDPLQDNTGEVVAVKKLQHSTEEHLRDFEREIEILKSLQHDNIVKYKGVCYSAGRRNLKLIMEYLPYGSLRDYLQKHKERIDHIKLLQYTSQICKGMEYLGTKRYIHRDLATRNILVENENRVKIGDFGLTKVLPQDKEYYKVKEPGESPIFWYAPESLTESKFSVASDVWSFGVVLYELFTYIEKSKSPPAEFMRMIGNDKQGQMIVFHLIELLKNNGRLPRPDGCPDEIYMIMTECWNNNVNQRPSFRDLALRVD
Chain of JAK1 (P23458 875-1153): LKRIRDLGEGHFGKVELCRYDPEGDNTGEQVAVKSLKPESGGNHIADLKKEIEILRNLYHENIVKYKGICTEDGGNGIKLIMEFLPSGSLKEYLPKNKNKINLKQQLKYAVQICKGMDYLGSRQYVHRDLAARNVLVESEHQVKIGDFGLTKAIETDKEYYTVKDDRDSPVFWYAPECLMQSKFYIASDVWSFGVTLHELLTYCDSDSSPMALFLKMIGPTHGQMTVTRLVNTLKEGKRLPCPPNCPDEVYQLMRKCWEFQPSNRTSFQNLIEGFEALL

Usually IC50 stands for the midpoint of a concentration-inhibition curve. Regarding `N#CC[C@]1(n2ncc(-c3cc(-c4cc(N)ncn4)cc4ncccc34)n2)C[C@@H](C#N)C1` [Example 395, cis-3-{4-[7-(6-aminopyrimidin-4-yl)quinolin-5-yl]-2H-1,2,3-triazol-2-yl}-3-(cyanomethyl)cyclobutanecarbonitrile], the IC50 was 6.35 µM in experiment [1], 78 nM in experiment [2], above 10 µM in experiment [3] and 774 nM in experiment [4].
Taken in the same sequence, the figures for `N#CC[C@]1(n2ncc(-c3cc(-c4cncc(N)n4)cc4ncccc34)n2)C[C@@H](C#N)C1` [Example 396, cis-3-{4-[7-(6-aminopyrazin-2-yl)quinolin-5-yl]-2H-1,2,3-triazol-2-yl}-3-(cyanomethyl)cyclobutanecarbonitrile] were 3.33 µM, 506 nM, above 10 µM and 1480 nM.
Taken in the same sequence, the figures for `N#CC[C@]1(n2ncc(-c3cc(-c4cnc(N)cn4)cc4ncccc34)n2)C[C@@H](C#N)C1` [Example 398, cis-3-{4-[7-(5-aminopyrazin-2-yl)quinolin-5-yl]-2H-1,2,3-triazol-2-yl}-3-(cyanomethyl)cyclobutanecarbonitrile] were 1.9 µM, 204 nM, above 10 µM and 1040 nM.
Turning to `N#CC[C@]1(n2ncc(-c3cc(-c4cnc(N)cn4)cc4ncccc34)n2)C[C@H](C#N)C1` [Example 399, trans-3-{4-[7-(5-aminopyrazin-2-yl)quinolin-5-yl]-2H-1,2,3-triazol-2-yl}-3-(cyanomethyl)cyclobutanecarbonitrile], the IC50 in experiment [1] is above 10 µM; in experiment [2], 2400 nM; in experiment [3], above 10 µM; in experiment [4] it was above 10000 nM.
Turning to `N#CC[C@]1(n2ncc(-c3cc(-c4ccc(N)nn4)cc4ncccc34)n2)C[C@@H](C#N)C1` [Example 400, cis-3-{4-[7-(6-aminopyridazin-3-yl)quinolin-5-yl]-2H-1,2,3-triazol-2-yl}-3-(cyanomethyl)cyclobutanecarbonitrile], the IC50 in experiment [1] turned out to be 0.748 µM; in experiment [2], 16 nM; in experiment [3], 9.13 µM; in experiment [4] it was 67 nM.
For `N#CC[C@]1(n2ncc(-c3cc(-c4ccc(N)nn4)cc4ncccc34)n2)C[C@H](C#N)C1` [Example 401, trans-3-{4-[7-(6-aminopyridazin-3-yl)quinolin-5-yl]-2H-1,2,3-triazol-2-yl}-3-(cyanomethyl)cyclobutanecarbonitrile] the same measures were 3.7 µM, 55 nM, above 10 µM and 369 nM.
For `Cc1cncc(-c2cc(-c3cnn([C@]4(CC#N)C[C@H](C#N)C4)n3)c3cccnc3c2)n1` [Example 402, cis-3-(cyanomethyl)-3-{4-[7-(6-methylpyrazin-2-yl)quinolin-5-yl]-2H-1,2,3-triazol-2-yl}cyclobutanecarbonitrile], the IC50 in experiment [1] is above 10 µM; in experiment [2], 2530 nM; in experiment [3] it was above 10 µM; in experiment [4] it was 6290 nM.
`Cc1cncc(-c2cc(-c3cnn([C@]4(CC#N)C[C@@H](C#N)C4)n3)c3cccnc3c2)n1` [Example 403, trans-3-(cyanomethyl)-3-{4-[7-(6-methylpyrazin-2-yl)quinolin-5-yl]-2H-1,2,3-triazol-2-yl}cyclobutanecarbonitrile]: the IC50 was above 10 µM in experiment [1], 7190 nM in experiment [2], above 10 µM in experiment [3] and above 10000 nM in experiment [4].
As for `Cc1ncc(N)nc1-c1cc(-c2cnn([C@]3(CC#N)C[C@H](C#N)C3)n2)c2cccnc2c1` [Example 404, cis-3-{4-[7-(6-amino-3-methylpyrazin-2-yl)quinolin-5-yl]-2H-1,2,3-triazol-2-yl}-3-(cyanomethyl)cyclobutanecarbonitrile], the IC50 in experiment [1] was above 10 µM; in experiment [2], 7400 nM; in experiment [3], above 10 µM; in experiment [4], above 10000 nM.
For `COc1ncc(-c2cc(-c3cnn(C4(CC#N)CN(S(C)(=O)=O)C4)n3)c3cccnc3c2)cn1` [Example 405, [3-{4-[7-(2-methoxypyrimidin-5-yl)quinolin-5-yl]-2H-1,2,3-triazol-2-yl}-1-(methylsulfonyl)azetidin-3-yl]acetonitrile], the IC50 in experiment [1] is above 10 µM; in experiment [2], 3060 nM; in experiment [3] it was above 10 µM; in experiment [4] it was above 10000 nM.
`N#CC[C@]1(n2ncc(-c3cc(-c4ncc(OCCO)cn4)cc4ncccc34)n2)C[C@@H](C#N)C1` [Example 406, cis-3-(cyanomethyl)-3-(4-{7-[5-(2-hydroxyethoxy)pyrimidin-2-yl]quinolin-5-yl}-2H-1,2,3-triazol-2-yl)cyclobutanecarbonitrile]: the 50% inhibitory concentration (IC50) in experiment [1] was above 10 µM; in experiment [2] it was 2150 nM; in experiment [3] it was above 10 µM; in experiment [4] it was above 10000 nM.
For the molecule `COc1nc(-c2cc(-c3cnn([C@]4(CC#N)C[C@H](C#N)C4)n3)c3cccnc3c2)cnc1N` [Example 407, cis-3-{4-[7-(5-amino-6-methoxypyrazin-2-yl)quinolin-5-yl]-2H-1,2,3-triazol-2-yl}-3-(cyanomethyl)cyclobutanecarbonitrile], the IC50 in experiment [1] was 1.2 µM; in experiment [2], 257 nM; in experiment [3] it was above 10 µM; in experiment [4] it was 1010 nM.
For `COc1nc(-c2cc(-c3cnn([C@]4(CC#N)C[C@@H](C#N)C4)n3)c3cccnc3c2)cnc1N` [Example 408, trans-3-{4-[7-(5-amino-6-methontpyrazin-2-yl)quinolin-5-yl]-2H-1,2,3-triazol-2-yl}-3-(cyanomethyl)cyclobutanecarbonitrile] the same measures were above 10 µM, 2090 nM, above 10 µM and above 10000 nM.
As to `CS(=O)(=O)N1CC(CC#N)(n2ncc(-c3cc(-c4ccc(=O)[nH]c4)cc4ncccc34)n2)C1` [Example 409, [1-(methylsulfonyl)-3-{4-[7-(6-oxo-1,6-dihydropyridin-3-yl)quinolin-5-yl]-2H-1,2,3-triazol-2-yl}azetidin-3-yl]acetonitrile], the IC50 was 2.61 µM in experiment [1], 53 nM in experiment [2], above 10 µM in experiment [3] and 982 nM in experiment [4].
For `N#CC[C@]1(n2ncc(-c3cc(-c4cc[nH]c(=O)c4)cc4ncccc34)n2)C[C@@H](C#N)C1` [Example 410, cis-3-(cyanomethyl)-3-{4-[7-(2-oxo-1,2-dihydropyridin-4-yl)quinolin-5-yl]-2H-1,2,3-triazol-2-yl}cyclobutanecarbonitrile] the same measures were 2.34 µM, 39 nM, above 10 µM and 207 nM.
For `N#CC[C@]1(n2ncc(-c3cc(-c4cc[nH]c(=O)c4)cc4ncccc34)n2)C[C@H](C#N)C1` [Example 411, trans-3-(cyanomethyl)-3-{4-[7-(2-oxo-1,2-dihydropyridin-4-yl)quinolin-5-yl]-2H-1,2,3-triazol-2-yl}cyclobutanecarbonitrile] the same measures were above 10 µM, 257 nM, above 10 µM and 1690 nM.
